A short description of this experiment: Oxidation of cyclohexene to cyclohexanol followed by FT Raman spectroscopy. As to the method:
When no imogolite was present in the test the volume of imogolite was replaced by an equivalent volume of water so as to retain a constant volume. The oxidation of the cyclohexene was followed by FT (Fourier transform) Raman spectroscopy by measuring the percentage of cyclohexene converted to cyclohexanol after 48 hours. The tests were carried out at ambient temperature.

Consider 1 compound from US6620397B2, “Material and method for treating photographic effluents” (Eastman Kodak Company, priority 2001, dated 2003).

Molecules are shown by their SMILES.

For the compound `OO` [Example 13, hydrogen peroxide], for the setting “5 g material, 20 ml cyclohexene in 80 ml methanol, ambient temperature, 48 hours”, the “Cyclohexene oxidized after 48 h (%)” value is 3%. Besides, for the setting “summary of Table I”, the “Oxidizing property towards cyclohexene (in words)” value is recorded as “weak oxidizing agent”.
